One molecule from patent US9358247B2, “Methods and compositions for promoting activity of anti-cancer therapies” (Oncology Research International Limited, priority 2006, dated 2016) can be followed below.

Molecules are shown by their SMILES. pIC50: −log10 of the molar value. Like-named read-outs stand apart in the source and are kept apart here.

What all share (assay type): cell-based, human
The subject of one experiment is PC3 cell line. Nature of the experiment: Cancer cell growth inhibition, SRB dye assay (single agents and 50:50 IC50 mixtures). As to conditions: Homo sapiens, PC-3, 144 h, single agent, Example 2. As to the method:
(§1) Cancer cells were seeded the day before application of drug in triplicate or quadruplicate in 96-well plates, allowed to grow in the presence of drug for 6 days before cell growth relative to untreated control wells was determined with a dye assay.
(§2) Cells were seeded in triplicate or quadruplicate at 3-4,000 per microtitre well in 90 μl of RPMI culture medium/10% foetal calf serum/penicillin, streptomycin mix, treated with 10 μl of drug (prepared in a dilution plate at 10× concentration required), and allowed to grow until the controls were nearly confluent (6 days).
(§3) SRB: Plates were washed with PBS, fixed with methylated spirits, washed with tap water and stained with 50 μL/well of SRB solution (sulforhodamine, 0.4% in 1% acetic acid), followed by washing with tap water and 1% acetic acid, solubilisation in Tris and absorbance read at 564 nm in an ELISA reader.
(§4) Data was collected using ELISA plate reader software—SOFTmax PRO3.1.2, then imported into EXCEL. The mean and SD of replicates were calculated as a % of control, after subtraction of the blank value (wells with no cells). A graph was plotted of % control vs dose of agent and IC50 (half maximal inhibitory concentration) values determined.
(§5) Tumour cells were seeded in duplicate in 96-well plates at 2-5,000 per microtitre well containing RPMI culture medium/10% foetal calf serum. The cells were allowed to grow until the controls were nearly confluent after 5-6 days. Plates were then washed with PBS, fixed in ethanol and stained with 50 μL/well of SRB solution (sulforhodamine, 0.4% in 1% acetic acid), followed by washing with 1% acetic acid and solubilisation in Tris. The absorbance was read at 564 nm using an ELISA reader.
(§6) The IC50, or concentration required to inhibit cell growth by 50%, was determined from the percentage inhibition versus concentration data using the probit calculation methods of Finney (Finney D J (1971). Probit Analysis. 3rd Edition. Cambridge University Press).
(§7) The inhibitory data from each mixture was used to determine an IC50 of IC50 value, where the concentrations used were the Multiplying Factor values. In order to determine the actual IC50 contribution of each component in the two-component mixture, the IC50 of IC50 value was multiplied by the IC50 of the individual component. This can then be used to determine the reduction in IC50 contribution (ie, reduction in dose) of the chemotherapeutic agent due to the presence of the steroid saponin in the mixture. A simpler way of determining the reduction in dose is to use the following simple formula: […]
Background: Sulforhodamine B stains cellular protein and so reports cell mass.

A further experiment deals with HT29 cell line. The experiment is described as above. To be noted: Homo sapiens, HT-29, 144 h, single agent, Example 2. As to the method:
as §1, §2, §3, §4, §5, §6, §7

A further experiment concerns DU145 cell line. The experiment is described as above. As to conditions: Homo sapiens, DU-145, 144 h, single agent, Example 2. As to the method:
as §1, §2, §3, §4, §5, §6, §7

A further experiment has as its system A549 cell line. The experiment is described as above. To be noted: Homo sapiens, 144 h, single agent, Example 2, read-out: IC50. As to the method:
as §1, §2, §3, §4, §5, §6, §7

Another experiment concerns K562 cell line. The description is as above. To be noted: Homo sapiens, 144 h, single agent, Example 2, read-out: IC50. As to the method:
as §1, §2, §3, §4, §5, §6, §7
The cell seeding and ELISA plate methodology of Example 2 were used for determining inhibition of the K562 cell line.

Experiment [1] deals with PC3, DU145, A549 and HT29 cell lines. Nature of the experiment: Cancer cell growth inhibition, IC50 values used in assay for four cell lines (Example 5). To be noted: Homo sapiens, value used to make up 50:50 IC50 mixtures. As to the method:
as §5, §6
The cell seeding and ELISA plate methodology of Example 2 were used for determining inhibition of four cancer cell lines. IC50 values were determined for the steroid saponins dioscin, deltonin and prosapogenin A, and their mixtures with cisplatin, docetaxel, doxorubicin and vincristine, using PC3, DU145, A549 and HT29 cell lines.

In a further experiment the test system is LNCap cell line. Nature of the experiment: Cancer cell growth inhibition, SRB dye assay (single agents and 50:50 IC50 mixtures). To be noted: Homo sapiens, 144 h. As to the method: (§8) Cancer cells were seeded the day before application of drug in triplicate or quadruplicate in 96-well plates, allowed to grow in the presence of drug for 6 days before cell growth relative to untreated control wells was determined with a dye assay. Cells were seeded in triplicate or quadruplicate at 3-4,000 per microtitre well in 90 μl of RPMI culture medium/10% foetal calf serum/penicillin, streptomycin mix, treated with 10 μl of drug (prepared in a dilution plate at 10× concentration required), and allowed to grow until the controls were nearly confluent (6 days). SRB: Plates were washed with PBS, fixed with methylated spirits, washed with tap water and stained with 50 μL/well of SRB solution (sulforhodamine, 0.4% in 1% acetic acid), followed by washing with tap water and 1% acetic acid, solubilisation in Tris and absorbance read at 564 nm in an ELISA reader. Data was collected using ELISA plate reader software—SOFTmax PRO3.1.2, then imported into EXCEL. The mean and SD of replicates were calculated as a % of control, after subtraction of the blank value (wells with no cells). A graph was plotted of % control vs dose of agent and IC50 (half maximal inhibitory concentration) values determined. […] The cells were allowed to grow until the controls were nearly confluent after 5-6 days. Plates were then washed with PBS, fixed in ethanol and stained with 50 μL/well of SRB solution (sulforhodamine, 0.4% in 1% acetic acid), followed by washing with 1% acetic acid and solubilisation in Tris. The absorbance was read at 564 nm using an ELISA reader. […] Cambridge University Press). […] The inhibitory data from each mixture was used to determine an IC50 of IC50 value, where the concentrations used were the Multiplying Factor values. In order to determine the actual IC50 contribution of each component in the two-component mixture, the IC50 of IC50 value was multiplied by the IC50 of the individual component. This can then be used to determine the reduction in IC50 contribution (ie, reduction in dose) of the chemotherapeutic agent due to the presence of the steroid saponin in the mixture. A simpler way of determining the reduction in dose is to use the following simple formula: […]

In another experiment the test system is MCF7 cell line. Described as above. To be noted: Homo sapiens, 144 h. As to the method:
as §8

Where [2] appears, read: Example 3, value used to make up 50:50 IC50 mixtures, read-out: IC50 values used in assay.
Setting [3] is: single agent, Example 2, read-out: IC50.

A word on the pIC50: it is the negative decadic logarithm of the IC50, by convention in mol/L.

On to `CC[C@]1(O)C[C@H]2CN(CCc3c([nH]c4ccccc34)[C@@](C(=O)OC)(c3cc4c(cc3OC)N(C=O)[C@H]3[C@@](O)(C(=O)OC)[C@H](OC(C)=O)[C@]5(CC)C=CCN6CC[C@]43[C@@H]65)C2)C1` [Vincristine], for which the pIC50 in the experiment with PC3 cell line is 8.96; in the experiment with HT29 cell line it was 8.62; in the experiment on DU145 cell line, 8.54; in the experiment on A549 cell line it was 8.22; in the experiment with K562 cell line, 9.68; in experiment [1] it was 8.60. The pIC50 in the experiment with LNCap cell line (setting [2]) was 9.30; in the experiment on LNCap cell line (setting [3]) it was 9.31; with MCF7 cell line (setting [2]), 9.30; with MCF7 cell line (setting [3]), 9.31.
